Reference: patent US9689841B2, “Fluorescent pI markers for isoelectric focusing separations and fluorescent labeling” (The Texas A&M University System, priority 2011, dated 2017)
Like-named read-outs stand apart in the source and are kept apart here.

Legend:
[1] = cited from earlier work
[2] = from the two pKa values
Excerpt: An ampholytic compound dissolved in an aqueous buffer can be present in the solution either as a cationic, isoelectric or anionic species, depending on the pH of the solution. In the presence of a nonalternating electric field, the cationic or anionic species migrate electrophoretically toward the cathode or the anode, respectively. At a certain solution pH where the ampholyte becomes isoelectric, the net electrophoretic migration of its band becomes zero. The numeric value of this solution pH is equal to the pI value (isoelectric point) of the ampholyte. The pI value of an ampholyte is a material characteristic that is determined by the structure of the ampholyte (the types and pKa values of its weak and strong electrolyte functional groups). When the ampholyte contains a single acidic group (characterized by pKa^acid) and a single basic group (characterized by pKa^conjugate acid for this conjugate acid form), the pI value of the ampholyte can be calculated as pI=(pKa^acid+pKa^conjugate acid)/2. When an ampholyte contains two acidic groups (characterized by pKa^acid1 and pKa^acid2) and one basic group (characterized by pKa^conjugate acid for its conjugate acid form) with pKa^acid1<pKa^acid2<<pKa^conjugate acid, the pI of the ampholyte lies between pKa^acid1 and pKa^acid2 and is calculated as pI=(pKa^acid1 pKa^acid2)/2. In such cases, the acidic groups between which the pI lies are called the buffering groups, while the basic group is called the titrating group or charge balancing group. Similarly, when an ampholyte contains two basic groups (characterized by pKa^conjugate acid1 and pKa^conjugate acid2 for their conjugate acid forms) and one acidic group (characterized by pKa^acid) with pKa^acid<<pKa^conjugate acid1<pKa^conjugate acid2, the pI of the ampholyte lies between pKa^conjugate acid1 and pKa^conjugate acid2 and is calculated as pI=(pKa^conjugate acid1, pKa^conjugate acid2)/2. In such cases, the two basic groups between which the pI lies are called the buffering groups, while the acidic group is called the titrating group or charge balancing group. When the ampholyte contains multiple buffering groups and multiple titrating or charge balancing groups with relatively close pKa values, the charge contribution of each species needs to be evaluated in order to calculate the pI value.

[3] = physchem
[4] = first (lower) of the two pKa values
[5] = second (higher) of the two pKa values

| pI [2] | pKa [3] | Compound | pKa [1, 4] | pKa [1, 5] |
| --- | --- | --- | --- | --- |
| – | – | O=C(O)c1ccccc1C(=O)O [1,2-benzenedicarboxylic acid] | 2.76 | 4.92 |
| – | – | O=C(O)c1ccc(C(=O)O)cc1 [1,4-benzenedicarboxylic acid] | 3.60 | 4.50 |
| 3.105 | 2.1 | O=C(O)c1ccccn1 [pyridine-2-carboxylic acid] | – | – |
| 3.34 | 1.54 | O=C(O)c1ccncc1 [pyridine-4-carboxylic acid] | 1.8 | 4.88 |

| Compound | pI [2] | pKa [3] | pKa [1, 4] | pKa [1, 5] |
| --- | --- | --- | --- | --- |
| O=C(O)c1cccnc1 [pyridine-3-carboxylic acid] | 3.365 | 1.3 | – | – |
